The values below come from publication PMC5218480 (PLoS ONE, 2017).

In the assay the test system is MV-4-11 cells. Briefly: Gene expression microarray analysis (Affymetrix PrimeView) and GSEA. The format is cell-based, human. Set-up: RFU PODN (11730768_x_at) / Fold change /veh PODN (11730768_x_at) / RFU LINC00158 (11744669_a_at) / Fold change /veh LINC00158 (11744669_a_at) / RFU DUSP10 (11751237_a_at) / Fold change /veh DUSP10 (11751237_a_at) / RFU ID3 (11757404_x_at) / Fold change /veh ID3 (11757404_x_at) / RFU PLEKHG5 (11737974_s_at) / Fold change /veh PLEKHG5 (11737974_s_at) / RFU LRRC4B (11730491_at) / Fold change /veh LRRC4B (11730491_at) / RFU GIMAP4 (11747438_a_at) / Fold change /veh GIMAP4 (11747438_a_at) / RFU KRT8 (11758183_x_at) / Fold change /veh KRT8 (11758183_x_at) / RFU CNN1 (11734310_a_at) / Fold change /veh CNN1 (11734310_a_at) / RFU VPS37D (11726825_at) / Fold change /veh VPS37D (11726825_at) / RFU C10orf10 (11716522_x_at) / Fold change /veh C10orf10 (11716522_x_at) / RFU KIR2DL2 /// KIR2DL4 /// KIR2DL5A /// KIR2DL5B /// KIR2DS1 /// KIR2DS2 /// KIR2DS3 /// KIR2DS4 /// KIR3DL3 /// KIR3DL3 /// KIR3DS1 (11738374_at) / Fold change /veh KIR2DL2 /// KIR2DL4 /// KIR2DL5A /// KIR2DL5B /// KIR2DS1 /// KIR2DS2 /// KIR2DS3 /// KIR2DS4 /// KIR3DL3 /// KIR3DL3 /// KIR3DS1 (11738374_at) / RFU C1QL1 (11718748_at) / Fold change /veh C1QL1 (11718748_at) / RFU TMPRSS4 (11747572_a_at) / Fold change /veh TMPRSS4 (11747572_a_at) / RFU HAMP (11756126_x_at) / Fold change /veh HAMP (11756126_x_at) / RFU RNFT2 (11725882_a_at) / Fold change /veh RNFT2 (11725882_a_at) / RFU NR4A2 (11747474_a_at) / Fold change /veh NR4A2 (11747474_a_at) / RFU ABCC12 (11746883_a_at) / Fold change /veh ABCC12 (11746883_a_at) / RFU TMEM136 (11760407_x_at) / Fold change /veh TMEM136 (11760407_x_at) / RFU CLDN22 /// WWC2 (11732394_at) / Fold change /veh CLDN22 /// WWC2 (11732394_at) / RFU HLA-DPB1 (11760878_x_at) / Fold change /veh HLA-DPB1 (11760878_x_at) / RFU SPINT1 (11716480_a_at) / Fold change /veh SPINT1 (11716480_a_at) / RFU GAP43 (11754022_s_at) / Fold change /veh GAP43 (11754022_s_at) / RFU A4GNT (11735810_at) / Fold change /veh A4GNT (11735810_at) / RFU PRB3 (11715151_x_at) / Fold change /veh PRB3 (11715151_x_at) / RFU TUBB4B (11761932_at) / Fold change /veh TUBB4B (11761932_at) / RFU CAPN14 (11732068_a_at) / Fold change /veh CAPN14 (11732068_a_at) / RFU TMCC2 (11721928_a_at) / Fold change /veh TMCC2 (11721928_a_at) / RFU IRGQ (11745062_a_at) / Fold change /veh IRGQ (11745062_a_at) / RFU FAM174B (11720279_a_at) / Fold change /veh FAM174B (11720279_a_at) / RFU TMPRSS4 (11748680_a_at) / Fold change /veh TMPRSS4 (11748680_a_at) / RFU FAM212B (11763350_a_at) / Fold change /veh FAM212B (11763350_a_at) / RFU PLEKHG5 (11743358_a_at) / Fold change /veh PLEKHG5 (11743358_a_at) / RFU ZSCAN30 (11745921_a_at) / Fold change /veh ZSCAN30 (11745921_a_at) / RFU CMKLR1 (11741424_a_at) / Fold change /veh CMKLR1 (11741424_a_at) / RFU LOC101060620 /// MAPK8IP1 (11723275_at) / Fold change /veh LOC101060620 /// MAPK8IP1 (11723275_at) / RFU SPTSSB (11747773_x_at) / Fold change /veh SPTSSB (11747773_x_at) / RFU PRSS12 (11739890_at) / Fold change /veh PRSS12 (11739890_at) / RFU BIN1 (11741810_x_at) / Fold change /veh BIN1 (11741810_x_at) / RFU WNT11 (11732464_a_at) / Fold change /veh WNT11 (11732464_a_at) / RFU C10orf10 (11716521_a_at) / Fold change /veh C10orf10 (11716521_a_at) / RFU C5orf56 (11738089_at) / Fold change /veh C5orf56 (11738089_at) / RFU CYB561 (11721691_x_at) / Fold change /veh CYB561 (11721691_x_at) / RFU ANKRD19P (11752326_a_at) / Fold change /veh ANKRD19P (11752326_a_at) / RFU OR2T12 /// OR2T33 /// OR2T8 (11738714_s_at) / Fold change /veh OR2T12 /// OR2T33 /// OR2T8 (11738714_s_at) / RFU VCAN (11748164_a_at) / Fold change /veh VCAN (11748164_a_at) / RFU JSRP1 (11732532_at) / Fold change /veh JSRP1 (11732532_at) / RFU KRTAP10-11 (11738290_x_at) / Fold change /veh KRTAP10-11 (11738290_x_at) / RFU MYO3A (11730013_a_at) / Fold change /veh MYO3A (11730013_a_at) / RFU EBF3 (11725865_a_at) / Fold change /veh EBF3 (11725865_a_at) / RFU CAMK2N1 (11719241_x_at) / Fold change /veh CAMK2N1 (11719241_x_at) / RFU C5orf56 (11738088_a_at) / Fold change /veh C5orf56 (11738088_a_at) / RFU OLFML3 (11715873_a_at) / Fold change /veh OLFML3 (11715873_a_at) / RFU LOC100653217 /// NTM (11731650_a_at) / Fold change /veh LOC100653217 /// NTM (11731650_a_at) / RFU MAPK11 (11762145_a_at) / Fold change /veh MAPK11 (11762145_a_at) / RFU FIZ1 (11724087_x_at) / Fold change /veh FIZ1 (11724087_x_at) / RFU OASL (11726364_x_at) / Fold change /veh OASL (11726364_x_at) / RFU SOX15 (11748057_x_at) / Fold change /veh SOX15 (11748057_x_at) / RFU CD79A (11719716_a_at) / Fold change /veh CD79A (11719716_a_at) / RFU HIST1H1D (11736915_at) / Fold change /veh HIST1H1D (11736915_at) / RFU CASKIN2 (11723855_a_at) / Fold change /veh CASKIN2 (11723855_a_at) / RFU LOC730098 (11760151_x_at) / Fold change /veh LOC730098 (11760151_x_at) / RFU OR4N2 (11742367_at) / Fold change /veh OR4N2 (11742367_at) / RFU PRRT2 (11749266_a_at) / Fold change /veh PRRT2 (11749266_a_at) / RFU SNX32 (11753110_a_at) / Fold change /veh SNX32 (11753110_a_at) / RFU CDHR5 (11726645_a_at) / Fold change /veh CDHR5 (11726645_a_at) / RFU RCAN1 (11760418_a_at) / Fold change /veh RCAN1 (11760418_a_at) / RFU FAM167A (11723789_a_at) / Fold change /veh FAM167A (11723789_a_at) / RFU FAM26E (11764081_at) / Fold change /veh FAM26E (11764081_at) / RFU ISYNA1 (11749810_s_at) / Fold change /veh ISYNA1 (11749810_s_at) / RFU ACY1 (11761880_at) / Fold change /veh ACY1 (11761880_at) / RFU 11764098_at / Fold change /veh 11764098_at / RFU SAMD14 (11745864_x_at) / Fold change /veh SAMD14 (11745864_x_at) / RFU NPB (11741838_a_at) / Fold change /veh NPB (11741838_a_at) / RFU TMPRSS6 (11731388_a_at) / Fold change /veh TMPRSS6 (11731388_a_at) / RFU KRTAP10-2 (11738614_at) / Fold change /veh KRTAP10-2 (11738614_at) / RFU ARHGAP8 /// PRR5-ARHGAP8 (11727945_x_at) / Fold change /veh ARHGAP8 /// PRR5-ARHGAP8 (11727945_x_at) / RFU KRTAP5-7 /// NADSYN1 (11734609_at) / Fold change /veh KRTAP5-7 /// NADSYN1 (11734609_at) / RFU RASL12 (11751679_a_at) / Fold change /veh RASL12 (11751679_a_at) / RFU CDKN2B (11736163_a_at) / Fold change /veh CDKN2B (11736163_a_at) / RFU PRF1 (11729649_at) / Fold change /veh PRF1 (11729649_at) / RFU, ZNF638 /// ZNF638-IT1 / Fold change vs veh, ZNF638 /// ZNF638-IT1 / RFU, PANK3 / Fold change vs veh, PANK3 / RFU, SH3YL1 / Fold change vs veh, SH3YL1 / RFU, ZEB2 / Fold change vs veh, ZEB2 / RFU, NRIP1 / Fold change vs veh, NRIP1 / RFU, PTTG1IP / Fold change vs veh, PTTG1IP / RFU, CAPN2 / Fold change vs veh, CAPN2 / RFU, MED14 / Fold change vs veh, MED14 / RFU, SNORA58 / Fold change vs veh, SNORA58 / RFU, C1orf63 / Fold change vs veh, C1orf63 / RFU, LRRFIP1 / Fold change vs veh, LRRFIP1 / RFU, NDUFAF7 / Fold change vs veh, NDUFAF7 / RFU, SLC12A2 / Fold change vs veh, SLC12A2 / RFU, IBTK / Fold change vs veh, IBTK / RFU, ESF1 / Fold change vs veh, ESF1 / Fold change vs veh, TMEM50B / RFU, TAOK1 / Fold change vs veh, TAOK1 / RFU, ACBD3 / Fold change vs veh, ACBD3 / RFU, TMA16 / Fold change vs veh, TMA16 / RFU, RWDD3 / Fold change vs veh, RWDD3 / RFU, BCAT1 / Fold change vs veh, BCAT1 / RFU, EDEM3 / Fold change vs veh, EDEM3 / RFU, TMEM33 / Fold change vs veh, TMEM33 / RFU, WDR75 / Fold change vs veh, WDR75 / RFU, AHCTF1 / Fold change vs veh, AHCTF1 / RFU, TFRC / Fold change vs veh, TFRC / RFU, ZDHHC17 / Fold change vs veh, ZDHHC17 / RFU, NOM1 / Fold change vs veh, NOM1 / RFU, ARL8B / Fold change vs veh, ARL8B / RFU, ZBTB11 / Fold change vs veh, ZBTB11 / RFU, TAMM41 / Fold change vs veh, TAMM41 / RFU, KIAA1704 /// LOC100996395 / Fold change vs veh, KIAA1704 /// LOC100996395 / RFU, ING1 / Fold change vs veh, ING1 / RFU, TRMT61B / Fold change vs veh, TRMT61B / RFU, FUBP3 / Fold change vs veh, FUBP3 / RFU, TP53 / Fold change vs veh, TP53 / RFU, TNKS2 / Fold change vs veh, TNKS2 / RFU, ZFP14 / Fold change vs veh, ZFP14 / RFU, ACTR2 / Fold change vs veh, ACTR2 / RFU, PPP3R1 / Fold change vs veh, PPP3R1 / RFU, PIK3R1 / Fold change vs veh, PIK3R1 / RFU, HNRNPA1 / Fold change vs veh, HNRNPA1 / RFU, RNF170 / Fold change vs veh, RNF170 / RFU, ZNF28 / Fold change vs veh, ZNF28 / RFU, RNGTT / Fold change vs veh, RNGTT / RFU, OGT / Fold change vs veh, OGT / RFU, BRD1 / Fold change vs veh, BRD1 / RFU, MARS / Fold change vs veh, MARS / RFU, ZNF655 / Fold change vs veh, ZNF655 / RFU, FAHD1 / Fold change vs veh, FAHD1 / RFU, BDP1 / Fold change vs veh, BDP1 / RFU, LRRCC1 / Fold change vs veh, LRRCC1 / RFU, ARID1A / Fold change vs veh, ARID1A / RFU, ZNF146 / Fold change vs veh, ZNF146 / RFU, ZNF330 / Fold change vs veh, ZNF330 / RFU, GPN3 / Fold change vs veh, GPN3 / RFU, C9orf123 / Fold change vs veh, C9orf123 / RFU, N4BP2L2 / Fold change vs veh, N4BP2L2 / RFU, ARFIP1 / Fold change vs veh, ARFIP1 / RFU, FAM179B / Fold change vs veh, FAM179B / RFU, BCL10 / Fold change vs veh, BCL10 / RFU, UHRF1BP1L / Fold change vs veh, UHRF1BP1L / RFU, BET1 / Fold change vs veh, BET1 / RFU, CNOT2 / Fold change vs veh, CNOT2 / RFU, ZNF268 / Fold change vs veh, ZNF268 / Fold change vs veh, ZNF507 / RFU, DGCR2 / Fold change vs veh, DGCR2 / RFU, WDSUB1 / Fold change vs veh, WDSUB1 / Fold change vs veh, HSP90B1 /// MIR3652 / RFU, ADSS / Fold change vs veh, ADSS / RFU, GK / Fold change vs veh, GK / RFU, ZNF148 / Fold change vs veh, ZNF148 / RFU, TAF9 / Fold change vs veh, TAF9 / RFU, SLC1A5 / Fold change vs veh, SLC1A5 / RFU, SLMO2 / Fold change vs veh, SLMO2 / RFU, ABCC4 / Fold change vs veh, ABCC4 / RFU, LOC101060439 /// RAP1B / Fold change vs veh, LOC101060439 /// RAP1B / RFU, RFX7 / Fold change vs veh, RFX7 / RFU, GTPBP10 / Fold change vs veh, GTPBP10 / RFU, CNEP1R1 / Fold change vs veh, CNEP1R1 / RFU, BIVM-ERCC5 /// ERCC5 / Fold change vs veh, BIVM-ERCC5 /// ERCC5 / RFU, ILF3 / Fold change vs veh, ILF3 / RFU 11762660_at / Fold change /veh 11762660_at / RFU VCAN (11757783_s_at) / Fold change /veh VCAN (11757783_s_at) / RFU DDX43 (11728927_at) / Fold change /veh DDX43 (11728927_at) / RFU KRT8 (11758188_x_at) / Fold change /veh KRT8 (11758188_x_at) / RFU NKD1 (11759106_at) / Fold change /veh NKD1 (11759106_at) / RFU SRD5A1 (11742802_a_at) / Fold change /veh SRD5A1 (11742802_a_at) / RFU TPSAB1 /// TPSB2 (11721975_s_at) / Fold change /veh TPSAB1 /// TPSB2 (11721975_s_at) / RFU GSTM3 (11746129_a_at) / Fold change /veh GSTM3 (11746129_a_at) / RFU IL23R (11737362_x_at) / Fold change /veh IL23R (11737362_x_at) / RFU TMEM51 (11727254_a_at) / Fold change /veh TMEM51 (11727254_a_at) / RFU PIWIL2 (11732686_x_at) / Fold change /veh PIWIL2 (11732686_x_at) / RFU ORM1 (11744905_x_at) / Fold change /veh ORM1 (11744905_x_at) / RFU CCDC152 (11743942_at) / Fold change /veh CCDC152 (11743942_at) / RFU ECM1 (11717891_a_at) / Fold change /veh ECM1 (11717891_a_at) / RFU IL23R (11748794_a_at) / Fold change /veh IL23R (11748794_a_at) / RFU TNFAIP8L3 (11732012_x_at) / Fold change /veh TNFAIP8L3 (11732012_x_at) / RFU MBOAT4 (11741988_at) / Fold change /veh MBOAT4 (11741988_at) / RFU 11764193_at / Fold change /veh 11764193_at / RFU TMEM53 (11763286_at) / Fold change /veh TMEM53 (11763286_at) / RFU MAGEB2 (11727129_at) / Fold change /veh MAGEB2 (11727129_at) / RFU TMEM200A (11744735_a_at) / Fold change /veh TMEM200A (11744735_a_at) / RFU CCDC152 (11751479_a_at) / Fold change /veh CCDC152 (11751479_a_at) / RFU FAM211A (11726209_a_at) / Fold change /veh FAM211A (11726209_a_at) / RFU RGS16 (11746705_a_at) / Fold change /veh RGS16 (11746705_a_at) / RFU VCAN (11755009_s_at) / Fold change /veh VCAN (11755009_s_at) / RFU RHOB (11743442_s_at) / Fold change /veh RHOB (11743442_s_at) / RFU RGS16 (11720943_a_at) / Fold change /veh RGS16 (11720943_a_at) / RFU RGS16 (11720944_at) / Fold change /veh RGS16 (11720944_at) / RFU, VPS4B / Fold change vs veh, VPS4B / RFU, CREB1 / Fold change vs veh, CREB1 / RFU, DNAJC13 / Fold change vs veh, DNAJC13 / RFU, GNAQ / Fold change vs veh, GNAQ / RFU, CDK5R1 / Fold change vs veh, CDK5R1 / RFU, ZRANB3 / Fold change vs veh, ZRANB3 / RFU, CUL4A / Fold change vs veh, CUL4A / RFU, CCNY / Fold change vs veh, CCNY / RFU, UFL1 / Fold change vs veh, UFL1 / RFU, COG3 / Fold change vs veh, COG3 / RFU, DIAPH2 / Fold change vs veh, DIAPH2 / RFU, SKA2 / Fold change vs veh, SKA2 / RFU, AFF3 / Fold change vs veh, AFF3 / RFU, LMF1 / Fold change vs veh, LMF1 / RFU, IPO11 / Fold change vs veh, IPO11 / RFU, DFFB / Fold change vs veh, DFFB / RFU, FOXP1 / Fold change vs veh, FOXP1 / RFU, CARD8 / Fold change vs veh, CARD8 / RFU, STRN3 / Fold change vs veh, STRN3 / RFU, ADK / Fold change vs veh, ADK / RFU, RASSF2 / Fold change vs veh, RASSF2 / RFU, WIPF1 / Fold change vs veh, WIPF1 / RFU, LARP1B / Fold change vs veh, LARP1B / RFU, RASA1 / Fold change vs veh, RASA1 / RFU, RB1 / Fold change vs veh, RB1 / RFU, PPFIA1 / Fold change vs veh, PPFIA1 / RFU, MAT2A / Fold change vs veh, MAT2A / RFU, CCT5 / Fold change vs veh, CCT5 / RFU, WDR92 / Fold change vs veh, WDR92 / RFU, CUX1 / Fold change vs veh, CUX1 / RFU, TTC7A / Fold change vs veh, TTC7A / RFU, TMEM135 / Fold change vs veh, TMEM135 / RFU, DEPTOR / Fold change vs veh, DEPTOR / RFU, CPM / Fold change vs veh, CPM / RFU, DNAJB6 / Fold change vs veh, DNAJB6 / RFU, CACNA2D3 / Fold change vs veh, CACNA2D3 / RFU, DTX4 / Fold change vs veh, DTX4 / RFU, TFCP2 / Fold change vs veh, TFCP2 / RFU, GMCL1 /// GMCL1P1 / Fold change vs veh, GMCL1 /// GMCL1P1 / RFU, AEBP2 / Fold change vs veh, AEBP2 / RFU, SNHG1 /// SNORD22 /// SNORD25 /// SNORD26 /// SNORD27 /// SNORD28 /// SNORD29 /// SNORD31 / Fold change vs veh, SNHG1 /// SNORD22 /// SNORD25 /// SNORD26 /// SNORD27 /// SNORD28 /// SNORD29 /// SNORD31 / Fold change (Aza/veh), C12orf56 (ProbeSet 11735607_a_at) / Fold change (ACY-1035/veh), C12orf56 (ProbeSet 11735607_a_at) / Fold change (Aza/veh), FGFR1OP (ProbeSet 11751329_s_at) / Fold change (ACY-1035/veh), FGFR1OP (ProbeSet 11751329_s_at) / Fold change (Aza/veh), VPS36 (ProbeSet 11739960_a_at) / Fold change (ACY-1035/veh), VPS36 (ProbeSet 11739960_a_at) / RFU SYPL1 (11715823_x_at) / Fold change /veh SYPL1 (11715823_x_at) / RFU IGFBP7 (11715501_s_at) / Fold change /veh IGFBP7 (11715501_s_at) / RFU REEP3 (11722064_at) / Fold change /veh REEP3 (11722064_at) / RFU IGLL1 (11728026_x_at) / Fold change /veh IGLL1 (11728026_x_at): dose or concentration left out as unconfirmed. Particulars: ProbeSet 11733108_at; LIST D.

For the compound `Nc1ncn([C@@H]2O[C@H](CO)[C@@H](O)[C@H]2O)c(=O)n1` [azacitidine], the “RFU, GNAQ” value is on record as 233.19 RFU.
